Source: US8324198B1, “Monocarbams” (Pfizer Inc., priority 2008, dated 2012)
Converted amounts (≈) assume the structure as drawn.

Assays:
[1] = system: Pseudomonas aeruginosa 1045-06; experiment: In vitro MIC, Pseudomonas aeruginosa 1045-06; assay type: cell-based; conditions: strain 1045-06, resistant to carbapenems, aminoglycosides and fluoroquinolones
Excerpt: (§1) Culture collection strain 1045-06 is resistant to several classes of known antimicrobial agents including carbapenems, aminoglycosides and fluoroquinolones, while strains 1000-02 and 3167 are resistant to cephalosporins. Strain PA0200 is a derivative of laboratory strain PAO1 that lacks a functional MexAB-oprM efflux pump.

[2] = system: Klebsiella pneumoniae 1000-02; experiment: In vitro MIC, Klebsiella pneumoniae 1000-02; assay type: cell-based; conditions: strain 1000-02, resistant to cephalosporins
Excerpt: as §1

[3] = system: Acinetobacter baumanii 3167; experiment: In vitro MIC, Acinetobacter baumanii 3167; assay type: cell-based; conditions: strain 3167, resistant to cephalosporins
Excerpt: as §1

P. aeruginosa 1091-05 [4] = experiment: In vitro MIC, P. aeruginosa 1091-05; assay type: cell-based
P. aeruginosa 1091-05 [5] = experiment: Murine respiratory tract infection model against P. aeruginosa 1091-05 (PD50); assay type: in vivo; conditions: for RTI PD50 vs. Pa 1091-05 (95% confidence interval): immunosuppressed C3H/HeN mice, intranasal challenge, subcutaneous BID for two days from 4 h post-challenge, lethality over ten days, disodium salt; for Efficacy relative to Comparative Example A (PD50, 95% confidence intervals): murine respiratory tract infection model, P. aeruginosa 1091-05
Description: For this model, C3H/HeN mice were immunosuppressed with cyclophosphamide given orally at 150 mg/kg and 100 mg/kg on days −4 and −1 relative to challenge, respectively. Mice were anesthetized with isoflurane (5% in oxygen) and the bacterial inoculum was given to each mouse via intranasal instillation in a 40 μL volume (˜2.8×10^3 cfu per mouse). Mice were dosed with compound administered via subcutaneous injection beginning at four hours post-challenge, and continuing for two days of BID therapy.
PD50 is a measure of the ability of a compound to protect mice from a lethal infection.

[6] = system: Pseudomonas aeruginosa PA0200 MexAB-oprM KO; experiment: In vitro MIC, Pseudomonas aeruginosa PA0200 MexAB-oprM KO; assay type: cell-based; conditions: PAO1, read-out: MIC Pseudomonas aeruginosa PA0200 MexAB-oprM KO
Excerpt: as §1

In the case of `C[C@@H](O)Cn1c(-c2cc(=O)c(O)c[nH]2)nn(S(=O)(=O)NC(=O)N2C[C@H](NC(=O)/C(=N\OC(C)(C)C(=O)[O-])c3csc(N)n3)C2=O)c1=O.C[C@@H](O)Cn1c(-c2cc(=O)c(O)c[nH]2)nn(S(=O)(=O)NC(=O)N2C[C@H](NC(=O)/C(=N\OC(C)(C)C(=O)[O-])c3csc(N)n3)C2=O)c1=O.[Na+].[Na+]` [Example 6], the “MIC Pseudomonas aeruginosa 1045-06” value [1] is reported as 250 µg/mL, the “MIC Klebsiella pneumoniae 1000-02” value [2] is reported as 500 µg/mL and the “MIC Acinetobacter baumanii 3167” value [3] is reported as 1000 µg/mL. The “Pa 1091-05 MIC” value (P. aeruginosa 1091-05 [4]) was 125 µg/mL, the “RTI PD50 vs. Pa 1091-05 (95% confidence interval)” value (P. aeruginosa 1091-05 [5]) was 32.7 (23.7-42.0) mg/kg and the “Efficacy relative to Comparative Example A (PD50, 95% confidence intervals)” value (P. aeruginosa 1091-05 [5]) was “significantly more efficacious relative to Comparative Example A”.

For `CC(C)(O/N=C(\C(=O)N[C@H]1CN(C(=O)NS(=O)(=O)n2nc(-c3cc(=O)c(O)c[nH]3)n(C[C@@H](O)CO)c2=O)C1=O)c1csc(N)n1)C(=O)[O-].CC(C)(O/N=C(\C(=O)N[C@H]1CN(C(=O)NS(=O)(=O)n2nc(-c3cc(=O)c(O)c[nH]3)n(C[C@@H](O)CO)c2=O)C1=O)c1csc(N)n1)C(=O)[O-].[Na+].[Na+]` [Example 3, 2-({[(1Z)-1-(2-amino-1,3-thiazol-4-yl)-2-({(3S)-1-[({4-[(2R)-2,3-dihydroxypropyl]-3-(5-hydroxy-4-oxo-1,4-dihydropyridin-2-yl)-5-oxo-4,5-dihydro-1H-1,2,4-triazol-1-yl}sulfonyl)carbamoyl]-2-oxoazetidin-3-yl}amino)-2-oxoethylidene]amino}oxy)-2-methylpropanoic acid, disodium salt], the “MIC Pseudomonas aeruginosa 1045-06” value [1] was 500 µg/mL, the “MIC Klebsiella pneumoniae 1000-02” value [2] was 500 µg/mL and the “MIC Acinetobacter baumanii 3167” value [3] was 500 µg/mL. For the same compound, the “Pa 1091-05 MIC” value (P. aeruginosa 1091-05 [4]) was 125 µg/mL, the “RTI PD50 vs. Pa 1091-05 (95% confidence interval)” value (P. aeruginosa 1091-05 [5]) was 20.6 (8.7-32.52) mg/kg and the “Efficacy relative to Comparative Example A (PD50, 95% confidence intervals)” value (P. aeruginosa 1091-05 [5]) was “significantly more efficacious relative to Comparative Example A”.

For `CN(C)CCn1c(-c2cc(=O)c(O)c[nH]2)nn(S(=O)(=O)NC(=O)N2C[C@H](NC(=O)/C(=N\OC(C)(C)C(=O)O)c3csc(N)n3)C2=O)c1=O` [Example 2, 2-({[(1Z)-1-(2-amino-1,3-thiazol-4-yl)-2-({(3S)-1-[({4-[2-(dimethylamino)ethyl]-3-(5-hydroxy-4-oxo-1,4-dihydropyridin-2-yl)-5-oxo-4,5-dihydro-1H-1,2,4-triazol-1-yl}sulfonyl)carbamoyl]-2-oxoazetidin-3-yl}amino)-2-oxoethylidene]amino}oxy)-2-methylpropanoic acid], the MIC [6] was 188 µg/mL (≈ 264 µM).

With `C[C@H](O)Cn1c(-c2cc(=O)c(O)c[nH]2)nn(S(=O)(=O)NC(=O)N2C[C@H](NC(=O)/C(=N\OC(C)(C)C(=O)[O-])c3csc(N)n3)C2=O)c1=O.C[C@H](O)Cn1c(-c2cc(=O)c(O)c[nH]2)nn(S(=O)(=O)NC(=O)N2C[C@H](NC(=O)/C(=N\OC(C)(C)C(=O)[O-])c3csc(N)n3)C2=O)c1=O.[Na+].[Na+]` [Example 7, 2-({[(1Z)-1-(2-amino-1,3-thiazol-4-yl)-2-({(3S)-1-[({3-(5-hydroxy-4-oxo-1,4-dihydropyridin-2-yl)-4-[(2S)-2-hydroxypropyl]-5-oxo-4,5-dihydro-1H-1,2,4-triazol-1-yl}sulfonyl)carbamoyl]-2-oxoazetidin-3-yl}amino)-2-oxoethylidene]amino}oxy)-2-methylpropanoic acid, disodium salt] the “MIC Pseudomonas aeruginosa 1045-06” value [1] was 250 µg/mL, the “MIC Klebsiella pneumoniae 1000-02” value [2] was 250 µg/mL and the “MIC Acinetobacter baumanii 3167” value [3] was 1000 µg/mL. The “Pa 1091-05 MIC” value (P. aeruginosa 1091-05 [4]) was 125 µg/mL, the “RTI PD50 vs. Pa 1091-05 (95% confidence interval)” value (P. aeruginosa 1091-05 [5]) was 15.7 (8.45-22.96) mg/kg and the “Efficacy relative to Comparative Example A (PD50, 95% confidence intervals)” value (P. aeruginosa 1091-05 [5]) was “significantly more efficacious relative to Comparative Example A”.

“2-({[(1Z)-2-{[(3S)-1-({[4-(2-amino-2-oxoethyl)-3-(5-hydroxy-4-oxo-1,4-dihydropyridin-2-yl)-5-oxo-4,5-dihydro-1H-1,2,4-triazol-1-yl]sulfonyl}carbamoyl)-2-oxoazetidin-3-yl]amino}-1-(2-amino-1,3-thiazol-4-yl)-2-oxoethylidene]amino}oxy)-2-methylpropanoic acid, disodium salt [Example 4]” was tested, and the “MIC Pseudomonas aeruginosa 1045-06” value [1] was 500 µg/mL, the “MIC Klebsiella pneumoniae 1000-02” value [2] was 1000 µg/mL and the “MIC Acinetobacter baumanii 3167” value [3] was 1000 µg/mL. For the same compound, the “Pa 1091-05 MIC” value (P. aeruginosa 1091-05 [4]) was 125 µg/mL, the “RTI PD50 vs. Pa 1091-05 (95% confidence interval)” value (P. aeruginosa 1091-05 [5]) was 25.0 (24.8-25.2) mg/kg and the “Efficacy relative to Comparative Example A (PD50, 95% confidence intervals)” value (P. aeruginosa 1091-05 [5]) was “significantly more efficacious relative to Comparative Example A”.

With `CC(C)(O/N=C(\C(=O)N[C@H]1CN(C(=O)NS(=O)(=O)n2nc(-c3cc(=O)c(O)c[nH]3)n(C[C@H](O)CO)c2=O)C1=O)c1csc(N)n1)C(=O)[O-].CC(C)(O/N=C(\C(=O)N[C@H]1CN(C(=O)NS(=O)(=O)n2nc(-c3cc(=O)c(O)c[nH]3)n(C[C@H](O)CO)c2=O)C1=O)c1csc(N)n1)C(=O)[O-].[Na+].[Na+]` [Example 5, 2-({[(1Z)-1-(2-amino-1,3-thiazol-4-yl)-2-({(3S)-1-[({4-[(2S)-2,3-dihydroxypropyl]-3-(5-hydroxy-4-oxo-1,4-dihydropyridin-2-yl)-5-oxo-4,5-dihydro-1H-1,2,4-triazol-1-yl}sulfonyl)carbamoyl]-2-oxoazetidin-3-yl}amino)-2-oxoethylidene]amino}oxy)-2-methylpropanoic acid, disodium salt] the “MIC Pseudomonas aeruginosa 1045-06” value [1] was 250 µg/mL, the “MIC Klebsiella pneumoniae 1000-02” value [2] was 500 µg/mL and the “MIC Acinetobacter baumanii 3167” value [3] was 500 µg/mL. The “Pa 1091-05 MIC” value (P. aeruginosa 1091-05 [4]) was 125 µg/mL, the “RTI PD50 vs. Pa 1091-05 (95% confidence interval)” value (P. aeruginosa 1091-05 [5]) was 18.6 (8.94-28.29) mg/kg and the “Efficacy relative to Comparative Example A (PD50, 95% confidence intervals)” value (P. aeruginosa 1091-05 [5]) was “significantly more efficacious relative to Comparative Example A”.
